# Active and inactive are the calls of the source. The calls are words filed in the database; no cut-off is given here.
# How the values were obtained:
# Pseudomonas aeruginosa [1] = experiment: Potentiation of novobiocin-induced antibacterial activity against wild type Pseudomonas aeruginosa PAO1 incubated for 18 hrs by CLSI protocol based assay; type: functional, organism-based
# Acinetobacter baumannii [2] = experiment: Antibacterial activity against novobiocin-resistant Acinetobacter baumannii ATCC 17978 mutant generated from seven serial passages by checkerboard assay; type: functional
# Acinetobacter baumannii [3] = experiment: Antibacterial activity against colistin-resistant Acinetobacter baumannii ATCC 17978 mutant generated from seven serial passages by checkerboard assay; type: functional
# Acinetobacter baumannii [4] = experiment: Antibacterial activity against novobiocin and test compound-resistant Acinetobacter baumannii ATCC 17978 mutant generated from seven serial passages in presence of novobiocin by checkerboard assay; type: functional
# Acinetobacter baumannii [5] = experiment: Antibacterial activity against wild type Acinetobacter baumannii ATCC 17978 by checkerboard assay; type: functional
# Pseudomonas aeruginosa [6] = experiment: Synergistic antibacterial activity against wild type Pseudomonas aeruginosa PAO1 assessed as potentiation of cefotaxime-induced antibacterial effect incubated for 18 hrs by checkerboard assay; type: functional, organism-based
# Pseudomonas aeruginosa [7] = experiment: Synergistic antibacterial activity against wild type Pseudomonas aeruginosa PAO1 assessed as potentiation of minocycline-induced antibacterial effect incubated for 18 hrs by checkerboard assay; type: functional, organism-based
# Pseudomonas aeruginosa [8] = experiment: Synergistic antibacterial activity against wild type Pseudomonas aeruginosa PAO1 assessed as potentiation of meropenem-induced antibacterial effect incubated for 18 hrs by checkerboard assay; type: functional, organism-based
# HEK293 = experiment: Cytotoxicity against human HEK293 cells at 50 uM incubated for 48 hrs by PrestoBlue dye based fluorescence assay; type: cell-based; settings: hek293, 48 h
# HepG2 = experiment: Cytotoxicity against human HepG2 cells at 50 uM incubated for 48 hrs by PrestoBlue dye based fluorescence assay; type: cell-based; settings: hepg2, 48 h
# Erythrocyte = experiment: Hemolytic activity against porcine erythrocytes assessed as hemoglobin release at 1024 ug/ml incubated for 1 hr by microplate reader analysis; type: ADME, cell-based, Sus scrofa; settings: pig
# [9] = Toxicity in Galleria mellonella larvae assessed as survivability at 200 mg/kg measured every 6 hrs for 72 hrs; type: organism-based; settings: in vivo
# Pseudomonas aeruginosa [10] = experiment: Synergistic antibacterial activity against wild type Pseudomonas aeruginosa PAO1 assessed as potentiation of rifampicin-induced antibacterial effect incubated for 18 hrs by checkerboard assay; type: functional, organism-based
# Pseudomonas aeruginosa [11] = experiment: Synergistic antibacterial activity against wild type Pseudomonas aeruginosa PAO1 assessed as potentiation of doxycycline-induced antibacterial effect incubated for 18 hrs by checkerboard assay; type: functional, organism-based
# Pseudomonas aeruginosa [12] = experiment: Synergistic antibacterial activity against wild type Pseudomonas aeruginosa PAO1 assessed as potentiation of linezolid-induced antibacterial effect incubated for 18 hrs by checkerboard assay; type: functional, organism-based
# Pseudomonas aeruginosa [13] = experiment: Synergistic antibacterial activity against wild type Pseudomonas aeruginosa PAO1 assessed as potentiation of moxifloxacin-induced antibacterial effect incubated for 18 hrs by checkerboard assay; type: functional, organism-based
# Pseudomonas aeruginosa [14] = experiment: Synergistic antibacterial activity against wild type Pseudomonas aeruginosa PAO1 assessed as potentiation of ciprofloxacin-induced antibacterial effect incubated for 18 hrs by checkerboard assay; type: functional, organism-based
# Pseudomonas aeruginosa [15] = experiment: Synergistic antibacterial activity against wild type Pseudomonas aeruginosa PAO1 assessed as potentiation of levofloxacin-induced antibacterial effect incubated for 18 hrs by checkerboard assay; type: functional, organism-based
# Pseudomonas aeruginosa [16] = experiment: Synergistic antibacterial activity against wild type Pseudomonas aeruginosa PAO1 assessed as potentiation of aztreonam-induced antibacterial effect incubated for 18 hrs by checkerboard assay; type: functional, organism-based
# Pseudomonas aeruginosa [17] = experiment: Synergistic antibacterial activity against wild type Pseudomonas aeruginosa PAO1 assessed as potentiation of ceftazidime-induced antibacterial effect incubated for 18 hrs by checkerboard assay; type: functional, organism-based
# Pseudomonas aeruginosa [18] = experiment: Synergistic antibacterial activity against wild type Pseudomonas aeruginosa PAO1 assessed as potentiation of fosfomycin-induced antibacterial effect incubated for 18 hrs by checkerboard assay; type: functional, organism-based
# Pseudomonas aeruginosa [19] = experiment: Synergistic antibacterial activity against wild type Pseudomonas aeruginosa PAO1 assessed as potentiation of chloramphenicol-induced antibacterial effect incubated for 18 hrs by checkerboard assay; type: functional, organism-based
# Pseudomonas aeruginosa [20] = experiment: Synergistic antibacterial activity against wild type Pseudomonas aeruginosa PAO1 assessed as potentiation of clindamycin-induced antibacterial effect incubated for 18 hrs by checkerboard assay; type: functional, organism-based
# Pseudomonas aeruginosa [21] = experiment: Synergistic antibacterial activity against wild type Pseudomonas aeruginosa PAO1 assessed as potentiation of piperacillin-induced antibacterial effect incubated for 18 hrs by checkerboard assay; type: functional, organism-based
# Pseudomonas aeruginosa [22] = experiment: Synergistic antibacterial activity against wild type Pseudomonas aeruginosa PAO1 assessed as potentiation of novobiocin-induced antibacterial effect incubated for 18 hrs by checkerboard assay; type: functional, organism-based
# Pseudomonas aeruginosa [23] = experiment: Synergistic antibacterial activity against wild type Pseudomonas aeruginosa PAO1 assessed as potentiation of tobramycin-induced antibacterial effect at <= 7.1 uM incubated for 18 hrs by checkerboard assay; type: functional, organism-based
# Pseudomonas aeruginosa [24] = experiment: Synergistic antibacterial activity against wild type Pseudomonas aeruginosa PAO1 assessed as potentiation of vancomycin-induced antibacterial effect at <=7.1 uM incubated for 18 hrs by checkerboard assay; type: functional, organism-based
# Pseudomonas aeruginosa [25] = experiment: Synergistic antibacterial activity against wild type Pseudomonas aeruginosa PAO1 assessed as potentiation of colistin-induced antibacterial effect at <=7.1 uM incubated for 18 hrs by checkerboard assay; type: functional, organism-based
# Pseudomonas aeruginosa [26] = experiment: Antibacterial activity against wild type Pseudomonas aeruginosa PAO1 assessed as fractional inhibitory concentration index incubated for 18 hrs in presence of tobramycin by checkerboard assay; type: functional
# Pseudomonas aeruginosa [27] = experiment: Antibacterial activity against wild type Pseudomonas aeruginosa PAO1 assessed as fractional inhibitory concentration index incubated for 18 hrs in presence of colistin by checkerboard assay; type: functional
# Pseudomonas aeruginosa [28] = experiment: Synergistic antibacterial activity against wild type Pseudomonas aeruginosa PAO1 assessed as potentiation of rifampicin-induced antibacterial effect incubated for 18 hrs by checkerboard assay relative to rifampicin alone; type: functional
# Pseudomonas aeruginosa [29] = experiment: Synergistic antibacterial activity against wild type Pseudomonas aeruginosa PAO1 assessed as potentiation of minocycline-induced antibacterial effect incubated for 18 hrs by checkerboard assay relative to minocycline alone; type: functional
# Pseudomonas aeruginosa [30] = experiment: Synergistic antibacterial activity against wild type Pseudomonas aeruginosa PAO1 assessed as potentiation of cefotaxime-induced antibacterial effect incubated for 18 hrs by checkerboard assay relative to cefotaxime alone; type: functional
# Pseudomonas aeruginosa [31] = experiment: Synergistic antibacterial activity against wild type Pseudomonas aeruginosa PAO1 assessed as potentiation of doxycycline-induced antibacterial effect incubated for 18 hrs by checkerboard assay relative to doxycycline alone; type: functional
# Pseudomonas aeruginosa [32] = experiment: Synergistic antibacterial activity against wild type Pseudomonas aeruginosa PAO1 assessed as potentiation of linezolid-induced antibacterial effect incubated for 18 hrs by checkerboard assay relative to linezolid alone; type: functional
# Pseudomonas aeruginosa [33] = experiment: Synergistic antibacterial activity against wild type Pseudomonas aeruginosa PAO1 assessed as potentiation of meropenem-induced antibacterial effect incubated for 18 hrs by checkerboard assay relative to meropenem alone; type: functional
# Pseudomonas aeruginosa [34] = experiment: Synergistic antibacterial activity against wild type Pseudomonas aeruginosa PAO1 assessed as potentiation of moxifloxacin-induced antibacterial effect incubated for 18 hrs by checkerboard assay relative to moxifloxacin alone; type: functional
# Pseudomonas aeruginosa [35] = experiment: Synergistic antibacterial activity against wild type Pseudomonas aeruginosa PAO1 assessed as potentiation of ciprofloxacin-induced antibacterial effect incubated for 18 hrs by checkerboard assay relative to ciprofloxacin alone; type: functional
# Pseudomonas aeruginosa [36] = experiment: Synergistic antibacterial activity against wild type Pseudomonas aeruginosa PAO1 assessed as potentiation of levofloxacin-induced antibacterial effect incubated for 18 hrs by checkerboard assay relative to levofloxacin alone; type: functional
# Pseudomonas aeruginosa [37] = experiment: Synergistic antibacterial activity against wild type Pseudomonas aeruginosa PAO1 assessed as potentiation of aztreonam-induced antibacterial effect incubated for 18 hrs by checkerboard assay relative to aztreonam alone; type: functional
# Pseudomonas aeruginosa [38] = experiment: Synergistic antibacterial activity against wild type Pseudomonas aeruginosa PAO1 assessed as potentiation of ceftazidime-induced antibacterial effect incubated for 18 hrs by checkerboard assay relative to ceftazidime alone; type: functional
# Pseudomonas aeruginosa [39] = experiment: Synergistic antibacterial activity against wild type Pseudomonas aeruginosa PAO1 assessed as potentiation of fosfomycin-induced antibacterial effect incubated for 18 hrs by checkerboard assay relative to fosfomycin alone; type: functional
# Pseudomonas aeruginosa [40] = experiment: Synergistic antibacterial activity against wild type Pseudomonas aeruginosa PAO1 assessed as potentiation of chloramphenicol-induced antibacterial effect incubated for 18 hrs by checkerboard assay relative to chloramphenicol alone; type: functional
# Pseudomonas aeruginosa [41] = experiment: Synergistic antibacterial activity against wild type Pseudomonas aeruginosa PAO1 assessed as potentiation of clindamycin-induced antibacterial effect incubated for 18 hrs by checkerboard assay relative to clindamycin alone; type: functional
# Pseudomonas aeruginosa [42] = experiment: Synergistic antibacterial activity against wild type Pseudomonas aeruginosa PAO1 assessed as potentiation of novobiocin-induced antibacterial effect incubated for 18 hrs by checkerboard assay relative to novobiocin alone; type: functional
# Pseudomonas aeruginosa [43] = experiment: Synergistic antibacterial activity against wild type Pseudomonas aeruginosa PAO1 assessed as potentiation of piperacillin-induced antibacterial effect incubated for 18 hrs by checkerboard assay relative to piperacillin alone; type: functional
smiles,measurement,setting,value
C#CCCCCO[C@@H]1[C@@H](O[C@H]2O[C@H](CO)[C@@H](O)[C@H](N)[C@H]2O)[C@H](N)C[C@H](N)[C@H]1O[C@H]1O[C@H](CN)[C@@H](O)C[C@H]1N,Activity,Pseudomonas aeruginosa [1],inactive
CO[C@H]1/C=C/O[C@@]2(C)Oc3c(C)c(O)c4c(O)c(c(/C=N/N5CCN(C)CC5)c(O)c4c3C2=O)NC(=O)/C(C)=C\C=C\[C@H](C)[C@H](O)[C@@H](C)[C@@H](O)[C@@H](C)[C@H](OC(C)=O)[C@@H]1C [RIFAMPIN],MIC,Acinetobacter baumannii [2],2 µg/mL
same,MIC,Acinetobacter baumannii [3],< 0.031 µg/mL
same,MIC,Acinetobacter baumannii [4],2 µg/mL
same,MIC,Acinetobacter baumannii [5],2 µg/mL
CN(C)c1ccc(O)c2c1C[C@H]1C[C@H]3[C@H](N(C)C)C(O)=C(C(N)=O)C(=O)[C@@]3(O)C(O)=C1C2=O [MINOCYCLINE],MIC,Acinetobacter baumannii [2],0.5 µg/mL
same,MIC,Acinetobacter baumannii [3],< 0.031 µg/mL
same,MIC,Acinetobacter baumannii [4],0.125 µg/mL
same,MIC,Acinetobacter baumannii [5],0.125 µg/mL
NC[C@H]1O[C@H](O[C@H]2[C@H](OCCCCCCn3cc(CCCCO[C@@H]4[C@@H](O[C@H]5O[C@H](CO)[C@@H](O)[C@H](N)[C@H]5O)[C@H](N)C[C@H](N)[C@H]4O[C@H]4O[C@H](CN)[C@@H](O)C[C@H]4N)nn3)[C@@H](O[C@H]3O[C@H](CO)[C@@H](O)[C@H](N)[C@H]3O)[C@H](N)C[C@@H]2N)[C@H](N)C[C@@H]1O.O=C(O)C(F)(F)F.O=C(O)C(F)(F)F.O=C(O)C(F)(F)F.O=C(O)C(F)(F)F.O=C(O)C(F)(F)F.O=C(O)C(F)(F)F.O=C(O)C(F)(F)F.O=C(O)C(F)(F)F.O=C(O)C(F)(F)F.O=C(O)C(F)(F)F,Activity,Pseudomonas aeruginosa [6],Dose-dependent effect
same,Activity,Pseudomonas aeruginosa [7],Dose-dependent effect
same,Activity,Pseudomonas aeruginosa [8],Dose-dependent effect
same,Activity,HEK293,Non-Toxic
same,Activity,HepG2,Non-Toxic
same,Activity,Erythrocyte,Non-Toxic
same,Activity,[9],Non-Toxic
same,Activity,Pseudomonas aeruginosa [10],Dose-dependent effect
same,Activity,Pseudomonas aeruginosa [11],Dose-dependent effect
same,Activity,Pseudomonas aeruginosa [12],Dose-dependent effect
same,Activity,Pseudomonas aeruginosa [13],Dose-dependent effect
same,Activity,Pseudomonas aeruginosa [14],Dose-dependent effect
same,Activity,Pseudomonas aeruginosa [15],Dose-dependent effect
same,Activity,Pseudomonas aeruginosa [16],Dose-dependent effect
same,Activity,Pseudomonas aeruginosa [17],Dose-dependent effect
same,Activity,Pseudomonas aeruginosa [18],Dose-dependent effect
same,Activity,Pseudomonas aeruginosa [19],Dose-dependent effect
same,Activity,Pseudomonas aeruginosa [20],Dose-dependent effect
same,Activity,Pseudomonas aeruginosa [21],Dose-dependent effect
same,Activity,Pseudomonas aeruginosa [22],Dose-dependent effect
same,Activity,Pseudomonas aeruginosa [23],inactive
same,Activity,Pseudomonas aeruginosa [24],inactive
same,Activity,Pseudomonas aeruginosa [25],inactive
same,fractional inhibitory concentration index (FICI),Pseudomonas aeruginosa [26],>4
same,fractional inhibitory concentration index (FICI),Pseudomonas aeruginosa [27],>4
same,fold change (FC),Pseudomonas aeruginosa [28],4 - 128
same,fold change (FC),Pseudomonas aeruginosa [29],4 - 128
same,fold change (FC),Pseudomonas aeruginosa [30],4 - 128
same,fold change (FC),Pseudomonas aeruginosa [31],4 - 128
same,fold change (FC),Pseudomonas aeruginosa [32],4 - 128
same,fold change (FC),Pseudomonas aeruginosa [33],4 - 128
same,fold change (FC),Pseudomonas aeruginosa [34],4 - 128
same,fold change (FC),Pseudomonas aeruginosa [35],4 - 128
same,fold change (FC),Pseudomonas aeruginosa [36],4 - 128
same,fold change (FC),Pseudomonas aeruginosa [37],4 - 128
same,fold change (FC),Pseudomonas aeruginosa [38],4 - 128
same,fold change (FC),Pseudomonas aeruginosa [39],4 - 128
same,fold change (FC),Pseudomonas aeruginosa [40],4 - 128
same,fold change (FC),Pseudomonas aeruginosa [41],4 - 128
same,fold change (FC),Pseudomonas aeruginosa [42],4 - 128
same,fold change (FC),Pseudomonas aeruginosa [43],4 - 128
O=C(O)c1cn(C2CC2)c2cc(N3CCNCC3)c(F)cc2c1=O [CIPROFLOXACIN],MIC,Acinetobacter baumannii [5],1 µg/mL

# — ChEMBL document CHEMBL4376820, “Homodimeric Tobramycin Adjuvant Repurposes Novobiocin as an Effective Antibacterial Agent against Gram-Negative Bacteria” (J Med Chem, 2019)
